Consider three sequences from patent US20240173377A1, “RETRO - INVERSO REGULATORY T CELL EPITOPES” (EpiVax, Inc., priority 2020, published 2024).

Test [1] concerns the target Class II HLA alleles (HLA DRB1). Kind of test: HLA binding assay (soluble MHC, competition with labeled control peptide). The arrangement: species or system human. The conditions noted are these: retro-inverso peptide versus L-amino acid counterpart (SEQ ID NOS: 114 and 115); HLA DRB1 *0101, *0301, *0401, *0401, *0701, *1101, *1301 and *1501; FIG. 3. As for the experimental part: HLA Binding Assay. Binding activity is analyzed at EpiVax (Providence, Rhode Island). The binding assay used (Steere A C et al., (2006), J Exp Med, 2003(4):961-71) yields an indirect measure of peptide-MHC affinity. Soluble HLA molecules are loaded onto a 96-well plate with the unlabeled experimental retro-inverso Tregitopes and labeled control peptide. Once the binding mixture reaches steady equilibrium (at 24 hours), the HLA-retro-inverso Tregitope complexes are captured on an ELISA plate coated with anti-human DR antibody and detected with a Europium-linked probe for the label (PerkinElmer, Waltham, MA). Time-resolved fluorescence measuring bound labeled control peptide is assessed by a SpectraMax® M5 unit (Spectramax, Radnor, PA). Binding of experimental retro-inverso Tregitopes is expressed as the percent inhibition of the labeled control peptide ([…]). The percent inhibition values for each experimental retro-inverso Tregitope (across a range of molar concentrations) is used to calculate the concentration at which it inhibits 50% of the labeled control […] specific binding, i.e. the retro-inverso Tregitope's IC50. […]

For a further test, the system named is CD4+ T cells. Kind of test: Tetanus Toxoid bystander assay, CD4+ T cell proliferation in PBMC (CFSE). The class given is cell-based, human. The conditions noted are these: TT-treated PBMCs of four donors; versus L-amino acid counterparts (SEQ ID NOS: 114 and 115); FIGS. 7A-7B, 8A-8B. The source says:
The purpose of this experiment is to establish the ability of the instantly-disclosed retro-inverso Tregitopes (e.g., any one or more of SEQ ID NO: 1-29 and 42-107 and/or fragments and variants thereof, and optionally 1 to 12 additional amino acids distributed in any ratio on the N-terminus and/or C-terminus of the polypeptide of SEQ ID NOS: 1-29 and 42-107 as disclosed herein, wherein each of the amino acids of SEQ ID NOS: 1-29 and 42-107 (and in aspects, the optional extensions thereof) except for glycine are in the D-amino acid configuration) of the instant disclosure to suppress the proliferation CD4+ Tcells, including antigen stimulated CD4+ effector memory T cells, which in aspects is by either direct (engagement and activation of TReg) or indirect (modulation of APC phenotype) means. […]

In a further test the test system is human DR molecules. The conditions noted are these: cited from earlier work.
Test [2] deals with PBMCs from lupus patients. The conditions noted are these: randomly selected lupus patients; cited from earlier work.

“Also recorded” adds a separate entry of the source.

DQHLVTLVSVVTYTSNYQEE [SEQ ID NO: 16]: the “IC50 values, binding to HLA DRB1 alleles” value in test [1] is recorded as “scored comparably; also recorded: comparable affinity”. Further, the “ability to reduce CD4+ cell proliferation” value in the test on CD4+ T cells is “comparable ability”.

On to KGYIFSHGTFHITLI [SEQ ID NO: 100], for which the “IC50 values, binding to HLA DRB1 alleles” value in test [1] was “scored comparably; also recorded: comparable affinity”. In addition, the “ability to reduce CD4+ cell proliferation” value with CD4+ T cells is reported as “comparable ability”.

As to “RIHMVYSKRSGKPRGYAFIEY (listed as Homo sapiens) [peptide 131-151]”, in the test on human DR molecules, the “binding to soluble HLA class II molecules” value is “binds to a large panel of human DR molecules”. In addition, the “lupus patients whose PBMCs contain T cells that proliferate in response to the peptide” value in test [2] is on record as 40%.
